The results in this text go back to patent US5919771A, “Urea and thiourea derivatives of glycopeptides” (Eli Lilly and Company, priority 1998, dated 1999).

Where only a bound is given, the exact number is not on record here.

What all share (type): cell-based
The test system of assay [1] is Enterococcus faecium and faecalis (RESISTANT). The following applies: geometric mean of 4-6 isolates. The procedure:
(§1) The antibacterial efficacy of the present compounds is illustrated by Table II. The minimal inhibitory concentrations (MICs) were determined using a standard broth micro-dilution assay.

Assay [2] has as its system Enterococcus faecium and faecalis (SENSITIVE). The note with it: geometric mean of 4-6 isolates. The protocol: as §1
The subject of assay [3] is Staphylococcus aureus 446. The assay can be described thus: MIC, standard broth micro-dilution assay, SA 446. The procedure: as §1
On the technique in general: Broth dilution looks for growth in wells or tubes with falling amounts of substance.

Assay [4] has as its system Staphylococcus aureus 489. Nature of the assay: MIC, standard broth micro-dilution assay, SA 489. The protocol: as §1
Assay [5] has as its system Staphylococcus aureus 447. The assay can be described thus: MIC, standard broth micro-dilution assay, SA 447. The protocol: as §1
The subject of assay [6] is Staphylococcus haemolyticus 105. The assay can be described thus: MIC, standard broth micro-dilution assay, SH 105. The procedure:
as §1

Assay [7] has as its system Staphylococcus haemolyticus 415. The assay can be described thus: MIC, standard broth micro-dilution assay, SH 415. The protocol:
as §1

Assay [8] deals with Staphylococcus epidermidis 270. The assay can be described thus: MIC, standard broth micro-dilution assay, SE 270. The protocol:
as §1

The subject of assay [9] is Streptococcus pyogenes C203. Nature of the assay: MIC, standard broth micro-dilution assay, SPY C203. The protocol: as §1
Assay [10] relates to Streptococcus pneumoniae P1. Nature of the assay: MIC, standard broth micro-dilution assay, SPN P1. The protocol:
as §1

With `CC(C)CC(C(=O)NC1C(=O)NC(CC(N)=O)C(=O)NC2C(=O)NC3C(=O)NC(C(=O)NC(C(=O)O)c4cc(O)cc(O)c4-c4cc3ccc4O)C(OC3CC(C)(N)C(O)C(C)O3)c3ccc(c(Cl)c3)Oc3cc2cc(c3OC2OC(CO)C(O)C(O)C2OC2CC(C)(NCc3ccc(-c4ccc(Cl)cc4)cc3)C(O)C(C)O2)Oc2ccc(cc2Cl)C1O)N(C)C(=S)Nc1ccccc1` (stereo not shown) [Example 22, N^LEU -(PHENYLTHIOCARBAMOYL)-N^DISACC -(p-(p-CHLOROPHENYL)-BENZYL)A82846B], the “Minimal Inhibitory Concentration (MIC) RESISTANT” value in assay [1] was 6.7. Moreover, the “Minimal Inhibitory Concentration (MIC) SENSITIVE” value in assay [2] is recorded as 2.6. Moreover, the “Minimal Inhibitory Concentration (MIC) SA 446” value in assay [3] is listed as 2. Further, in assay [4], the “Minimal Inhibitory Concentration (MIC) SA 489” value came out at 1. The “Minimal Inhibitory Concentration (MIC) SA 447” value in [5] was determined as 1. In addition, in assay [6], the “Minimal Inhibitory Concentration (MIC) SH 105” value was found to be 1. For the same molecule, in assay [7], the “Minimal Inhibitory Concentration (MIC) SH 415” value was found to be 2. Moreover, the “Minimal Inhibitory Concentration (MIC) SE 270” value in assay [8] amounted to 0.5. Also, in assay [9], the “Minimal Inhibitory Concentration (MIC) SPY C203” value is recorded as “≤ .06”. In addition, the “Minimal Inhibitory Concentration (MIC) SPN P1” value in assay [10] is given as “≤ .06”.
